Tests used:
[1] = test system: HCV virus (hepatitis C virus); experiment: Capture of HCV virus from patient plasma on magnetic microbeads coated with pepβ2GPI, RT-PCR quantification; format: binding; conditions: for % compared to β2GPI: HCV copies captured relative to β2GPI beads; for HCV/run copies: per run, virus captured on coated beads from plasma of patients
Protocol: (§1) The pepβ2GPI were grafted onto the microbeads according to the supplier's recommendations. In summary, the microbeads are suspended in phosphate buffer at a pH of 6.0. The beads are then activated, for 15 minutes, in the presence of 1-ethyl-3-(3-Dimethylaminopropyl) carbodiimide and N-hydroxysuccinimide. After washing with HCl, 2 mM, the beads are suspended in a phosphate buffer at a pH of 7.5, containing the pepβ2GPI. The concentration of pepβ2GPI in this coupling buffer is 20 mg/L; the microbeads are incubated in the buffer with gentle and constant shaking at a temperature of 25° C. for 3 hours. The microbeads are then centrifuged at 1,500 rpm and the supernatant is removed; the centrifugation pellet is suspended in the same buffer as that used for the coupling of pepβ2GPI, which forms the suspension of microbeads coated with pepβ2GPI which we want to test.
(§2) One hundred microliters of viral culture supernatant to be studied are placed in an Eppendorf tube with 900 microliters of Tris buffer at a pH of 7.5 and 10 microliters of microbeads. The tubes are shaken horizontally to mix the microbeads well, and each tube is incubated at 37° C. or at room temperature (RT=22° C.) for 30 minutes. In each tube, the microbeads are then separated from the liquid phase by means of a magnet, placed externally against the wall of the tube, and the viral RNA is extracted. The beads are brought into contact with a viral lysis buffer, included in an RNA extraction kit: QIAamp RNA viral kit, sold by QIAGEN and the viral RNA is isolated according to the seller's recommendations.
The virus used is the HCV virus (hepatitis C virus), present in the plasma of patients. The same protocol as described in example 1 was carried out.

[2] = test system: HSV virus (Herpes Simplex virus); experiment: Capture of HSV virus on magnetic microbeads coated with pepβ2GPI; format: binding
Protocol: as §1, §2
(§3) The viruses tested are the HSV virus (Herpes Simplex virus) and the BVDV virus (Bovine viral Diarrhea Virus).
(§4) The same protocol as that described in example 1 was carried out.

[3] = test system: S. aureus ATCC 6538; experiment: Capture on magnetic microbeads coated with pepβ2GPI: C5 S. aureus ATCC 6538; format: binding
Protocol: (§5) To test the interaction of microbeads coated with β2GPI and the peptides derived from them, with bacteria present in the blood, 1 ml of blood culture is taken from each sample and placed in a 15 ml tube. 20 μl of microbeads are added and each tube is incubated at 37° C. with horizontal shaking. The tubes are then placed in a magnetic field which retains the microbeads on the wall and the supernatant is removed. The microbeads are then washed twice with sterile PBS, of the same composition as previously indicated; the microbeads are then resuspended in 150 μl of BTS culture medium. Two methods for detecting bacteria captured by microbeads were used: culture on TS agar and PCR For the detection of the bacterial capture by culture, 50 μl of the suspension of microbeads thus obtained are taken and they are spread out in a Petri dish containing TS agar. Petri dishes are incubated in an oven at 37° C. for 24 hours. The bacteria that have grown on the agar were then counted.
(§6) The tested bacteria are: C3 E. coli ATCC 11105, C5 S. aureus ATCC 6538, H61 E. coli B6054, C1: E. coli ATCC 8739, H46: C. albicans 1 and H: 60 SCN
(§7) The same protocol and primers as those described in example 9 were carried out.

[4] = test system: E. coli ATCC 11105; experiment: Capture on magnetic microbeads coated with pepβ2GPI: C3 E. coli ATCC 11105; format: binding
Protocol: as §5, §6, §7

[5] = test system: E. coli ATCC 8739; experiment: Capture of E. coli ATCC 8739 on magnetic microbeads, culture and counting; format: binding, Escherichia coli; conditions: E. coli ATCC 8739 colonies from captured beads
Protocol: (§8) One ml of the culture of bacteria to be studied is placed in a hemolysis tube. 100 μl of buffer are added, the trade name of which is TTGB, then 20 μl of microbeads. The tube is stirred horizontally, to mix the microbeads well, and incubated at 37° C. or at room temperature (TA=22° C.) for half an hour. At the end of the incubation, the microbeads are separated from the liquid phase by means of a magnet, placed externally against the wall of the tube. The microbeads are then washed twice with LB medium and then resuspended in 1 ml of BTS culture medium (Tripticase-Soy broth) having the following formulation: […]
(§9) This culture medium is brought to a boil and then autoclaved, to make it sterile, before use. 20 μl of the microbead suspension are taken and spread in a Petri dish containing TS agar (Trypticase-Soya agar) having the following formulation: […]
(§10) The Petri dishes are incubated at +37° C. for 24 hours. The bacteria that have grown on the agar are then counted.
The used bacteria were obtained from a collection strain of Escherichia coli (E. coli), ATCC 8739. The same experiment as that described in the previous example was carried out.

[6] = test system: E. coli B6054; experiment: Capture of E. coli B6054 on magnetic microbeads, culture on TS agar and counting; format: binding, Escherichia coli; conditions: E. coli B6054 colonies from captured beads
[7] = test system: E. coli B6054; experiment: Capture on magnetic microbeads coated with pepβ2GPI: H61 E. coli B6054; format: binding
Protocol: as §5, §6, §7

[8] = test system: ISAV virus (Infectious salmon anemia virus); experiment: Capture of ISAV virus on magnetic microbeads coated with pepβ2GPI, RT-PCR quantification; format: binding; conditions: for % compared to β2GPI: ISAV copies captured relative to β2GPI beads; for ISAV copies: virus captured on coated beads from culture supernatant
Source text: The virus used is the ISAV virus (Infectious salmon anemia virus), responsible for anemia in salmon, originating from a culture supernatant.
The microbeads, intended to fix the virus, which are used are magnetic microbeads sold by the company MERCK under the name “Estapor® super-paramagnetic microspheres” which have a diameter between […].
as §1, §2
The RNA is then transcribed into complementary DNA, in the presence of reverse transcriptase, according to the following protocol:
Finally, the complementary DNA (cDNA) is amplified by chain reaction using a polymerase and quantified according to the following protocol: […]

[9] = test system: BVDV virus (Bovine viral Diarrhea Virus); experiment: Capture of BVDV virus on magnetic microbeads coated with pepβ2GPI; format: binding
Protocol: as §1, §2, §3, §4

[10] = test system: S. aureus, SA 378804; experiment: Capture of S. aureus SA 378804 on magnetic microbeads, culture and counting; format: binding, Staphylococcus aureus; conditions: S. aureus SA 378804 colonies from captured beads
Protocol: as §8, §9, §10
The used bacterium is a strain of Staphylococcus aureus (S. aureus), SA 378804, isolated from the wound of the foot of a diabetic person, Sotto et al., Diabetes Care (2008) 31 (12), p. 2318-24. The same experiment as that described in the previous example was carried out.

[11] = test system: IPN virus (Infectious pancreatic necrosis virus); experiment: Capture of IPN virus on magnetic microbeads coated with pepβ2GPI, RT-PCR quantification; format: binding; conditions: for % compared to β2GPI: IPN copies captured relative to β2GPI beads; for IPN Copies: virus captured on coated beads from culture supernatant
Protocol: as §1, §2
The virus used is the IPN virus (Infectious pancreatic necrosis virus), responsible for necrosis of the pancreas in salmon, originating from a culture supernatant. The same protocol as described in example 1 was carried out.

[12] = test system: E. coli; conditions: cited from earlier work
[13] = test system: S. pyogenes; conditions: cited from earlier work
[14] = test system: S. aureus; conditions: cited from earlier work
[15] = test system: SCN; experiment: Capture on magnetic microbeads coated with pepβ2GPI: H: 60 SCN; format: binding
Protocol: as §5, §6, §7

[16] = test system: C. albicans 1; experiment: Capture on magnetic microbeads coated with pepβ2GPI: H46 C. albicans 1; format: binding
Protocol: as §5, §6, §7

[17] = test system: E. coli ATCC 8739; experiment: Capture on magnetic microbeads coated with pepβ2GPI: C1 E. coli ATCC 8739; format: binding
Protocol: as §5, §6, §7

[18] = biological target: T1, binding of β2GPI to LPS (Homo sapiens, UniProt P02749); conditions: cited from earlier work
T1 sequence (P02749 20-345): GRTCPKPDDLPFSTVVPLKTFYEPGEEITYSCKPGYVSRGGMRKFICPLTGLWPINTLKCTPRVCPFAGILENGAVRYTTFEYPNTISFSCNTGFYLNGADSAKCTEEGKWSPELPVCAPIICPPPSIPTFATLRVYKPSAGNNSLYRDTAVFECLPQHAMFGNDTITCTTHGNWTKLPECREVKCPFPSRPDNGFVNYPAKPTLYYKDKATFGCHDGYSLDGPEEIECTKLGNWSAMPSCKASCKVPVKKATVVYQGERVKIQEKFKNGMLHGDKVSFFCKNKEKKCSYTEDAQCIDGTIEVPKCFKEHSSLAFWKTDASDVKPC

| Substance | % compared to β2GPI [1] | HCV/run copies [1] [copies] | Capture of HSV virus [2] [%] | Capture of C5 S. aureus ATCC 6538 [3] [%] | Capture of C3 E. coli ATCC 11105 [4] [%] | % compared to β2GPI [5] [%] | % compared to β2GPI [6] [%] | Capture of H61 E. coli B6054 [7] [%] | % compared to β2GPI [8] | ISAV copies [8] | Capture of BVDV virus [9] [%] | % compared to β2GPI [10] [%] | % compared to β2GPI [11] | IPN Copies [11] [copies] | also measured |
| --- | --- | --- | --- | --- | --- | --- | --- | --- | --- | --- | --- | --- | --- | --- | --- |
| CKNKEKKC [Peptide P2] | (72%) | 81 | 97 | 80 | 30 | 15 | 31 | 104 | (112%) | 62 700 copies | 181 | 104 | (50%) | 6 |  |
| CKNKEKKC [Peptide P3] |  |  |  | 65 | 42 |  |  | 88 | (117%) | 65 550 copies | 15 |  |  |  |  |
| CKNKEKKCGGSSLAFWK [Peptide P4] | (73%) | 83 | 357 | 73 | 26 | 18 | 44 | 85 | (110%) | 61 150 copies | 73 | 79 | (100%) | 12 |  |
| CKNKEKKCS [CNK8] |  |  |  |  |  |  |  |  |  |  |  |  |  |  | bactericidal effect [12]: have a bactericidal effect; bactericidal effect [13]: have a bactericidal effect; bactericidal effect [14]: This effect is less |
| GDKVSFFCKNKEKKCS [GDK15] |  |  |  |  |  |  |  |  |  |  |  |  |  |  | bactericidal effect [12]: have a bactericidal effect; bactericidal effect [13]: have a bactericidal effect; bactericidal effect [14]: This effect is less |
| H-(SSLAFWK)2-K—NH2 [Peptide P10] | (87%) | 98 | 119 | 66 | 45 | 12 | 34 | 79 | (105%) | 58 400 copies | 208 |  | (67%) | 8 | Capture of H: 60 SCN [15]: 49.0%; Capture of H46: C. albicans 1 [16]: 97.9%; Capture of C1: E. coli ATCC 8739 [17]: 6.17% |
| LAFWKTDA |  |  |  |  |  |  |  |  |  |  |  |  |  |  | inhibiting the binding of β2GPI to LPS [18]: capable of inhibiting the binding of β2GPI to LPS |
| SSLAFWK [Peptide P1] | (163%) | 184 |  | 56 | 30 | 68 | 92 | 71 | (130%) | 72 300 copies | 7 | 115 | (117%) | 14 |  |

Source: patent US20240002470A1, “Method for separation and/or detection and/or in vitro quantification of infectious compounds in biological material” (priority 2020, published 2024)
